Data on three molecules can be found in patent US7153849B2, “Antidepressant arylpiperazine derivatives of hetrocycle-fused benzodioxans” (Wyeth, priority 2002, dated 2006).

Data set [1] deals with T1, cloned human 5HT1A receptors (Homo sapiens, UniProt P08908).
T1 construct: expressed in transfected cells
T1 sequence (P08908 1-422): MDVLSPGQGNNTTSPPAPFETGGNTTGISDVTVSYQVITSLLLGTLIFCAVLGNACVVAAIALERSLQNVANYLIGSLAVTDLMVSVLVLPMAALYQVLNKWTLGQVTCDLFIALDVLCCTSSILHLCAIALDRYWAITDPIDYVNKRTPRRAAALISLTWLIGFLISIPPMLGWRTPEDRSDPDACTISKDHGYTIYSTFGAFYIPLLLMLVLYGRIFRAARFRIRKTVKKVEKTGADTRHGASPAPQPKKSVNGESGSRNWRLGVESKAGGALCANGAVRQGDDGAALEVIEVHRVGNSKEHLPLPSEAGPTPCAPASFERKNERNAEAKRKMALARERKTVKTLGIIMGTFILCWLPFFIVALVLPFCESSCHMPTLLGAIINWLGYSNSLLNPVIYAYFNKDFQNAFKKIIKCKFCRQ
Put plainly: 35S-GTPγS binding assay, 5HT1A antagonist activity. In kind it is biochemical. Particulars: for 5HT1A Function Imax: maximum inhibitory effect, vs 8-OH-DPAT, unit assumed; for IC50: reversal of 8-OH-DPAT (antagonist), read-out: 5HT1A Function IC50. As to the method:
Antagonist activity at 5HT1A receptors was established by using a ^35S-GTPγS binding assay similar to that used by Lazareno and Birdsall (Br. J. Pharmacol. 109:1120, 1993), in which the test compound's ability to affect the binding of ^35S-GTPγS to membranes containing cloned human 5HT1A receptors was determined. Agonists produce an increase in binding whereas antagonists produce no increase but rather reverse the effects of the standard agonist 8-OH-DPAT. The test compound's maximum inhibitory effect is represented as the Imax, while its potency is defined by the IC50.

Another data set deals with T2, serotonin transporter (Rattus norvegicus, UniProt P31652).
T2 construct: displace ^3H-paroxetine from male rat frontal cortical membranes; from tissue; host or cells: male rat frontal cortical membranes
T2 sequence (P31652 whole entry): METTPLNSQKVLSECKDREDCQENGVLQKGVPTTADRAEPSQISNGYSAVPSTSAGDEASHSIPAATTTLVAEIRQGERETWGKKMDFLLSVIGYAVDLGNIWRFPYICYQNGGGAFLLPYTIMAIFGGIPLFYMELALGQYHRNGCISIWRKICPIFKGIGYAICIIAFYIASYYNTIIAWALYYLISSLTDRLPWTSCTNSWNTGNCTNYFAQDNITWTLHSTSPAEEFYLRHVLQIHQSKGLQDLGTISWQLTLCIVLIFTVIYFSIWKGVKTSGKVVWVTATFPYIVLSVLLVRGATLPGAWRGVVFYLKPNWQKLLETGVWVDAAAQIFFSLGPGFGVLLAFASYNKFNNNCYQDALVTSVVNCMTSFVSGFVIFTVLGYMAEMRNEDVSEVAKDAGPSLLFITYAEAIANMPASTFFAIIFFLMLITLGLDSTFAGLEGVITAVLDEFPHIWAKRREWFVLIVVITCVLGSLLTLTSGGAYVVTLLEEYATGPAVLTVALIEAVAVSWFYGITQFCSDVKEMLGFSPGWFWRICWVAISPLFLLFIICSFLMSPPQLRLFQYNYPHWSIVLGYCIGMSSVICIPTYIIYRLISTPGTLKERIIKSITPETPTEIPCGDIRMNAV
Put plainly: 3H-paroxetine displacement from rat frontal cortical membranes (serotonin transporter affinity). Particulars: 3H-paroxetine, male rat frontal cortical membranes; read-out: 5-HT Transporter Affinity Ki. Format: binding.

Another data set addresses T3, human 5HT1A receptors (Homo sapiens, UniProt P08908).
T3 construct: expressed in transfected cells; host or cells: CHO cells
T3 sequence (P08908 1-422): T1 sequence (P08908 1-422)
The data set is described as follows: [3H] 8-OH-DPAT displacement from 5HT1A receptor in stably transfected CHO cells. Format: binding. Particulars: CHO cells with human 5HT1A, read-out: 5HT1A Receptor Affinity Ki. From the text:
High affinity for the serotonin 5HT1A receptor was established by testing the claimed compound's ability to displace [^3H] 8-OH-DPAT (dipropylamino-tetralin) from the 5HT1A serotonin receptor following a modification of the procedure of Hall et al., J. Neurochem. 44, 1685 (1985) which utilizes CHO cells stably transfected with human 5HT1A receptors.

`Cc1ccc2c3c(ccc2n1)OC[C@H](CN1CCN(c2cccc(Cl)c2)CC1)O3` [Example 1, (2S)-2-{[4-(3-chlorophenyl)piperazin-1-yl]methyl}-8-methyl-2,3-dihydro[1,4]dioxino[2,3-f]quinoline] had a melting point of 110 to 112 °C. For the same molecule, in data set [1], the 5HT1A Function Imax turned out to be 100% and the IC50 stood at 4.56 µM. On serotonin transporter, the Ki is 0.0157 µM. Besides, the Ki at human 5HT1A receptors was 0.0159 µM.

As for `Cc1ccc2c3c(ccc2n1)OC[C@H](CN1CCN(c2ccc4cc(Br)ccc4n2)CC1)O3` [Example 27, (2S)-2-{[4-(6-Bromoquinolin-2-yl)piperazin-1-yl]methyl}-8-methyl-2,3-dihydro[1,4]dioxino[2,3-f]quinoline], the melting point was in the range of 153 to 154 °C. In data set [1], the 5HT1A Function Imax was 82% and the IC50 turned out to be 2.41 µM. Further, at serotonin transporter, the Ki was found to be 0.101 µM. The Ki at human 5HT1A receptors came out at 0.0171 µM.

As to `Cc1ccc2c3c(ccc2n1)OC[C@H](CN1CCN(c2ccc(C)c(C)c2)CC1)O3` [Example 11, (2S)-2-{[4-(3,4-dimethylphenyl)piperazin-1-yl]methyl}-8-methyl-2,3-dihydro[1,4]dioxino[2,3-f]quinoline], the melting point lay within 118 to 120 °C. Besides, in data set [1], the 5HT1A Function Imax came out at 84% and the IC50 worked out at 0.345 µM. Moreover, the Ki on serotonin transporter came to 0.0855 µM. Moreover, on human 5HT1A receptors, the Ki was found to be 0.0182 µM.

A word on the melting point: it is the temperature of the solid-liquid transition. Usually IC50 stands for the point on the concentration scale where inhibition reaches its midpoint. One may read the Ki as the equilibrium dissociation constant of an inhibitor or competing ligand from its target.
